Test results reported in patent publication US20260124170A1, “PHARMACEUTICAL COMPOSITION COMPRISING METABOLITE OF ENAVOGLIFLOZIN, AND USE THEREOF” (DAEWOONG PHARMACEUTICAL CO., LTD., priority 2022, published 2026).
“And” between values parts separate entries of the source, which are not always exact repeats. Identical values can stand only once. Marks after values point to notes of the source that are not given here.

Columns and labels:
SGLT2 = biological target: T1, SGLT2 (Homo sapiens, UniProt P31639); assay: Whole-cell patch clamp glucose current, binding and dissociation, CHO-SGLT2; type: cell-based; settings: for Dissociation degree T1/2, off (s), SGLT2: washout
T1 construct: expressed in transfected cells
T1 sequence (P31639 1-672): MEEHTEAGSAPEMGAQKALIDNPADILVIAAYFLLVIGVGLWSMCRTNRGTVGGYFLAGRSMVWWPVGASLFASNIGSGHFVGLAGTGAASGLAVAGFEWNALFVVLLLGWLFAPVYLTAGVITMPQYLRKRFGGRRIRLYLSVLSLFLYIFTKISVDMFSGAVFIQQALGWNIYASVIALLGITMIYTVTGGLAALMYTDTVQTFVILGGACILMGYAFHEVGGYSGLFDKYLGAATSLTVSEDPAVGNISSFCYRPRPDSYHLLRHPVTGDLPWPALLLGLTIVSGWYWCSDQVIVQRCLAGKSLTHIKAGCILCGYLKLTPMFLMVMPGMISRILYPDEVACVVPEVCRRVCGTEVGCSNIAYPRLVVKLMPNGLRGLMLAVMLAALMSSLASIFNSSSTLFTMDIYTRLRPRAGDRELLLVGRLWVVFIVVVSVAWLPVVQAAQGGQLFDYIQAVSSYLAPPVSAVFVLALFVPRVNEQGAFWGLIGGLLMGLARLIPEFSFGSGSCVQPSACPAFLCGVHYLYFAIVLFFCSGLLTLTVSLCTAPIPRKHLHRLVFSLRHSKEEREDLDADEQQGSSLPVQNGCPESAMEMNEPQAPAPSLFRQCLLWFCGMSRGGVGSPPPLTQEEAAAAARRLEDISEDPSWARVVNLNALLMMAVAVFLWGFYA
Method: When SGLT1- and SGLT2-overexpressing cell lines (CHO-SGLT1, CHO-SGLT2 stable cells) were cultured to reach 60% confluency, the cells were treated with 0.05% trypsin to detach the cells from the bottom of the plate, suspended in 200 μL of culture medium, and used at room temperature.
Glucose reabsorption is induced by the Na^+ electrochemical potential gradient in the kidneys via SGLT2, and glucose diffuses across the cell membrane into the blood via glucose transporter 2 (GLUT-2), which enables facilitated glucose transport. While one Na^+ ion is absorbed per glucose molecule through SGLT2, two Nations are absorbed per glucose molecule through SGLT1. Therefore, by varying the composition of the buffer, only the glucose current was recorded, excluding the Na^+ current.
The experiment was conducted as described below.
1) Using a Narishige puller, a glass micropipette was made in two stages of 62.7° C. and 57° C., filled with an internal solution (145 mM CsCl, 5 mM NaCl, 10 mM HEPES, 11 mM ethylene glycol-bis(2-aminoethylether)-N,N,N′,N′-tetraacetic acid (EGTA), pH 7.2), and then inserted into the Ag/AgCl2 electrode of the patch clamp head-stage.
2) SGLT1 or SGLT2 cells were seeded on a chamber which was coated with poly-L-lysine in advance, and then an external solution (150 mM NaCl, 10 mM HEPES, 1 mM CaCl2), 1 mM MgCl2, pH 7.4) was flowed to ensure that the cells were sufficiently submerged. A temperature control device was used to maintain the temperature of the chamber at 36.5±0.5° C.
3) Using a micromanipulator, the glass micropipette was attached to the cell membrane to create a giga-ohm seal, which was then ruptured to detach the cell membrane (whole-cell mode, 3 to 5 MΩ).
4) The cells were fixed at −60 mV (holding potential), and the current [I^total current (Na^+/Glucose current (pA))] was measured in a gap-free data acquisition mode.
5) The external solution was continuously flowed into the chamber containing the cells, and the current (I^total) was recorded for about 30 seconds to 1 minute (stabilization), and then the external solution with added glucose (Na^+/Glucose external) (150 mM NaCl, 10 mM HEPES, 1 mM CaCl2), 1 mM MgCl2, 100 mM glucose, pH 7.4) was flowed to record the glucose current (I^glucose). Then, the cells were exposed to the external solution with added glucose containing one concentration of the compound for two minutes, and the glucose current suppressed by the compound was recorded.
7) After confirming the recovery of the current, the solution was replaced with a sodium-free external solution (Na^+-free external) (150 mM Choline-Cl, 1 mM CaCl2), 1 mM MgCl2, pH 7.4) and the Na^+ current was recorded. After the current was stabilized, the solution was replaced with the external solution to record the current in the resting state when the cells were not stimulated, thereby securing the reliability of the experimental system.
For statistical analysis of data, pCLAMP10.4 (Molecular Devices, LLC, San Jose, CA, USA) or Origin6.0 (OriginLab, Northampton, MA, USA) was used.
The test results were expressed as the mean±SD of the mean. Statistical significance was verified using the nonparametric Kruskal-Wallis test using Statistical Package for the Social Sciences (SPSS) for Windows (version 26.0, IBM Corp., Armonk, NY, USA). The significance level was set at p<0.05.

normal rats = assay: Oral glucose tolerance test (OGTT) after intravenous administration; type: in vivo, rat; settings: 1 mg/kg intravenous; for Glucose tolerance inhibition rate improved compared to the vehicle (blood glucose AUC): AUC for 120 minutes; for Glucose tolerance in OGTT: glucose 2 g/kg
Method: Enavogliflozin, M1, or M2 was intravenously administered once to normal rats, and antidiabetic efficacy was evaluated.
To perform the oral glucose tolerance test (OGTT) and examine urinary glucose excretion (UGE), enavogliflozin, M1, or M2 was administered intravenously to male 8-week-old normal rats at a dose of 1 mg/kg, and then a glucose solution (2 g/kg) was administered to load blood sugar. The blood sugar level was measured before glucose solution administration and at 5, 10, 15, 20, 30, 40, 60, 90, and 120 minutes after the administration to evaluate oral glucose tolerance. In addition, the UGE was evaluated by measuring the amount of glucose excreted in the urine 6, 24, 48, and 72 hours after the administration of the glucose solution.

Row | Dissociation rate from SGLT2, times slower than enavogliflozin (SGLT2; ratio of T1/2,off) | Binding affinity T1/2, on (s), SGLT2 (SGLT2; treatment concentration 200 μM) | Dissociation degree T1/2, off (s), SGLT2 (SGLT2; treatment concentration 200 μM) | Dissociation from SGLT2, times slower than dapagliflozin (SGLT2; ratio of T1/2,off) | Binding affinity T1/2, on (s), SGLT2 (SGLT2; treatment concentration 100 μM) | Dissociation degree T1/2, off (s), SGLT2 (SGLT2; treatment concentration 100 μM) | Dissociation degree T1/2, off (s), SGLT2 (SGLT2; treatment concentration 100 μM, listed as enavogliflozin) | SMILES | Glucose tolerance inhibition rate improved compared to the vehicle (blood glucose AUC) (normal rats) | Glucose tolerance in OGTT (normal rats; 1 mg/kg) | Glucose tolerance in OGTT (normal rats; listed as Metabolite M1, 1 mg/kg) | Glucose tolerance in OGTT (normal rats)
1 | 1.38 times | 51.8 ± 10.5*^, + s | 540.4 s and 540.4 ± 217.0^+, # s | – | – | – | – | OC[C@H]1O[C@@H](c2cc(Cc3ccc(C4(O)CC4)cc3)c(Cl)c3c2CCO3)[C@H](O)[C@@H](O)[C@@H]1O [M2, (2S,3R,4R,5S,6R)-2-(7-chloro-6-(4-(1-hydroxycyclopropyl)benzyl)-2,3-dihydrobenzofuran-4-yl)-6-(hydroxymethyl)tetrahydro-2H-pyran-3,4,5-triol] | 23% | improved glucose tolerance | – | –
2 | 2 times | 52.5 ± 3.8*^, + s | 369.9 s and 369.9 ± 56.5 ^ s | – | – | – | – | OC[C@H]1O[C@@H](c2cc(Cc3ccc(C4CC4)cc3)c(Cl)c3c2CC(O)O3)[C@H](O)[C@@H](O)[C@@H]1O (stereo partly drawn) [M1, (2S,3R,4R,5S,6R)-2-(7-chloro-6-(4-cyclopropylbenzyl)-2-hydroxy-2,3-dihydrobenzofuran-4-yl)-6-(hydroxymethyl)tetrahydro-2H-pyran-3,4,5-triol] | 49% | improved glucose tolerance | superior glucose tolerance to enavogliflozin | –
3 | – | – | – | about 2.8 times | 29.5 ± 5.5 s | 745.5^+, # s | 745.5 s | OC[C@H]1O[C@@H](c2cc(Cc3ccc(C4CC4)cc3)c(Cl)c3c2CCO3)[C@H](O)[C@@H](O)[C@@H]1O [Enavogliflozin, (2S,3R,4R,5S,6R)-2-(7-chloro-6 (4-cyclopropylbenzyl)-2,3-dihydrobenzofuran-4-yl)-6-(hydroxymethyl)tetrahydro-2H-pyran-3,4,5-triol] | 27% | – | – | improved glucose tolerance
